Reference: patent publication US20230312587A1, “PTERIDINONE COMPOUNDS AND USES THEREOF” (Vertex Pharmaceutical Incorporated, priority 2018, published 2023)

Target: Plk1 (Homo sapiens (Human), UniProt P53350)
Experiment: PLK1 inhibition assay (radioactive-phosphate incorporation)
Type: biochemical
Settings: Ki(app), read-out: PLK1 - 33P.ENZ - CB 10 Ki
Procedure: Compounds were screened for their ability to inhibit Plk1 using a radioactive-phosphate incorporation assay. Assays were carried out in a mixture of 25 mM HEPES (pH 7.5), 10 mM MgCl2, 25 mM NaCl, and 2 mM DTT. Final substrate concentrations were 20 μM [γ-33P]ATP (35mCi 33P ATP/mmol ATP, Perkin Elmer/Sigma Chemicals) and 9 uM Sam68 protein. Assays were carried out at room temperature in the presence of 15 nM Plk1. An assay stock buffer solution was prepared containing all of the reagents listed above, with the exception of ATP and the test compound of interest. 0.75 μL of DMSO stock containing serial dilutions of the test compound (typically starting from a final concentration of 10 μM with 2-fold serial dilutions—final DMSO concentration 1.5%) was placed in a 384 well plate followed by addition of 25 μL [γ-33P]ATP (final concentration 20 μM). The reaction was initiated by addition of 25 μL of the assay stock buffer solution.
The reaction was stopped after 45 minutes by the addition of 25 μL 30% trichloroacetic acid (TCA) containing 10 mM cold ATP. The entire quenched reaction was transferred to a 384-well glass fiber filter plate (Millipore, Cat no. MZFBNOW50). The plate was washed with 3×5% TCA. After drying, 40 μL of Ultima Gold liquid scintillation cocktail (Perkin Elmer) was added to the well prior to scintillation counting in a PerkinElmer TopCount.
After removing mean background values for all of the data points, Ki(app) data were calculated from non-linear regression analysis of the initial rate data using the Prism software package (GraphPad Prism, GraphPad Software, San Diego California, USA).

Chain of Plk1 (P53350 whole entry, species assumed): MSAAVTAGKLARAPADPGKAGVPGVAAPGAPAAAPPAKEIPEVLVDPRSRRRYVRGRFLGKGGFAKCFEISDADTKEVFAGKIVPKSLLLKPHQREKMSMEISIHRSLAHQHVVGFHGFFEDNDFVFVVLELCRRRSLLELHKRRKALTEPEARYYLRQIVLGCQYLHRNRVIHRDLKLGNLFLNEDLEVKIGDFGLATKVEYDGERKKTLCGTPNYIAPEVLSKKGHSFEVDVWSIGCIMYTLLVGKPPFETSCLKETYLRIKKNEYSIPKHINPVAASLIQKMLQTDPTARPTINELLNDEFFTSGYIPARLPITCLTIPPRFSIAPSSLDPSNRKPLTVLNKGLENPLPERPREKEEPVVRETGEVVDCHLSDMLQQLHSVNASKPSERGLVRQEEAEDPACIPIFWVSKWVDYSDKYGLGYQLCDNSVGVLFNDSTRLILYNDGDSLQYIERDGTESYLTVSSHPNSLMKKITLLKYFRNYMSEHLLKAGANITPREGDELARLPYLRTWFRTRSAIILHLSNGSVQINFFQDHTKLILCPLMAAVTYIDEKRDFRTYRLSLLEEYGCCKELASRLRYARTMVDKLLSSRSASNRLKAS

Row | SMILES | Ki [µM]
1 | Cc1nc(N[C@H]2C[C@H](Oc3cc(F)c(F)c(F)c3)C2)nc2c1NC(=O)[C@H](C)N2C [Compound 246, (7S)-4,7,8-trimethyl-2-((trans-3-(3,4,5-trifluorophenoxy)cyclobutyl)amino)-7,8-dihydropteridin-6(5H)-one] | > 4
2 | Cc1nc(N[C@H]2C[C@@H](Oc3cc(F)c(F)c(F)c3)C2)nc2c1NC(=O)[C@H](C)N2C [Compound 247, (7S)-4,7,8-trimethyl-2-((cis-3-(3,4,5-trifluorophenoxy)cyclobutyl)amino)-7,8-dihydropteridin-6(5H)-one] | > 4
3 | Cc1nc(N[C@H]2C[C@H](Oc3ccnc(C(F)(F)F)c3)C2)nc2c1NC(=O)[C@H](C)N2C [Compound 335, (7S)-4,7,8-trimethyl-2-((trans-3-((2-(trifluoromethyl)pyridin-4-yl)oxy)cyclobutyl)amino)-7,8-dihydropteridin-6(5H)-one] | > 4

Results, then the molecule that gave them:

Row | Ki [µM] | SMILES
4 | > 4 | Cc1nc(N[C@@H]2CC[C@@H](n3ccc(C(F)(F)F)n3)C2)nc2c1NC(=O)[C@H](C)N2C (single isomer, unassigned) [Compound 311]
5 | > 4 | Cc1nc(NCc2cnn(Cc3ccc(F)cc3)c2)nc2c1N(C)C(=O)[C@H](C)N2C [Compound 1, (7S)-2-(((1-(4-fluorobenzyl)-1H-pyrazol-4-yl)methyl)amino)-4,5,7,8-tetramethyl-7,8-dihydropteridin-6(5H)-one]
6 | > 4 | Cc1nc(NCc2cnn(Cc3ccc(F)cc3)c2)nc2c1NC(=O)[C@H](C)N2C [Compound 4, (7S)-2-(((1-(4-fluorobenzyl)-1H-pyrazol-4-yl)methyl)amino)-4,7,8-trimethyl-7,8-dihydropteridin-6(5H)-one]
7 | > 4 | Cc1nc(NCc2cnn(CCc3ccc(F)cc3)c2)nc2c1NC(=O)[C@H](C)N2C [Compound 6, (7S)-2-(((1-(4-fluorophenethyl)-1H-pyrazol-4-yl)methyl)amino)-4,7,8-trimethyl-7,8-dihydropteridin-6(5H)-one]
8 | > 4 | Cc1nc(NCc2cnn(CC3CCC3)c2)nc2c1N(C)C(=O)[C@H](C)N2C [Compound 7, (7S)-2-(((1-(cyclobutylmethyl)-1H-pyrazol-4-yl)methyl)amino)-4,5,7,8-tetramethyl-7,8-dihydropteridin-6(5H)-one]
9 | > 4 | Cc1nc(NCc2cnn(CCc3ccc(F)cc3)c2)nc2c1N(C)C(=O)[C@H](C)N2C [Compound 8, (7S)-2-(((1-(4-fluorophenethyl)-1H-pyrazol-4-yl)methyl)amino)-4,5,7,8-tetramethyl-7,8-dihydropteridin-6(5H)-one]
10 | > 4 | CC[C@H]1C(=O)Nc2cnc(NCc3cnn(Cc4ccc(F)cc4)c3)nc2N1C [Compound 9, (7S)-7-ethyl-2-(((1-(4-fluorobenzyl)-1H-pyrazol-4-yl)methyl)amino)-8-methyl-7,8-dihydropteridin-6(5H)-one]
11 | > 4 | COc1c(F)cc(Cn2cc(CNc3nc(C)c4c(n3)N(C)[C@@H](C)C(=O)N4)cn2)cc1F [Compound 46, (7S)-2-(((1-(3,5-difluoro-4-methoxybenzyl)-1H-pyrazol-4-yl)methyl)amino)-4,7,8-trimethyl-7,8-dihydropteridin-6(5H)-one]
12 | > 4 | Cc1nc(NCc2cnn(Cc3cc(C(F)(F)F)nn3C)c2)nc2c1NC(=O)[C@H](C)N2C [Compound 160, (7S)-4,7,8-trimethyl-2-(((1-((1-methyl-3-(trifluoromethyl)-1H-pyrazol-5-yl)methyl)-1H-pyrazol-4-yl)methyl)amino)-7,8-dihydropteridin-6(5H)-one]

System: non-small cell lung cancer (NSCLC) adenocarcinoma line D33966
Experiment: In vivo efficacy, NSCLC patient derived xenograft OD33966
Parameters: species or system nu/nu mice
Settings: Mus musculus, 264 h; NSCLC PDX OD33966, oral, 100 mpk qd, treatment day 11; read-out: % TGI
Procedure: Female immune deficient mice (Charles River, 4-6 wks age) were anesthetized with Ketamine-Xylazine (140 mg/kg-14 mg/kg ip) and shaved. Puralube eye ointment was applied to the eyes to prevent desiccation of the corneas. Betadine and 70% ethanol was applied to the shaved location to sterilize the skin at the location of the incision. The animals were placed in a biosafety cabinet for the duration of the surgery. Using scissors, an 8 to 10 mm incision was made in the lateral flank of the skin. A tumor fragment weighing between 50 and 150 mg was placed under the skin at the incision site using forceps, and staples were used to close the incision. The staples were removed 5 to 7 days after surgery. Starting approximately two weeks after implantation, animals were weighed, and tumors were measured using caliper twice weekly. Tumor volume was calculated using the formula: volume=length×width^2×0.52.
Compound administration began when xenografts reached approximately 100-300 mm3 and continued until control xenografts reached […] of the animal's body weight. Test compounds were administered orally by gastric gavage. Percent tumor growth inhibition (TG) was calculated on the indicated treatment day. Percent TGI is defined as: [1−(del T/del C)]×100%, where del T is the final minus initial average volumes of the treated group, and del C is the final minus initial average volumes of the control group. […] The tested compounds were administered orally. Vehicle control consisted of either 0.5% methylcellulose/0.1% sodium lauryl sulfate or 20% captisol. Tumor volumes were determined by caliper measurement twice a week.

Row | SMILES | inhibition in vivo at 100 mg/kg [%]
13 | Cc1nc(N[C@H]2C[C@H](Oc3cc(F)c(F)c(F)c3)C2)nc2c1NC(=O)[C@H](C)N2C [Compound 246, (7S)-4,7,8-trimethyl-2-((trans-3-(3,4,5-trifluorophenoxy)cyclobutyl)amino)-7,8-dihydropteridin-6(5H)-one] | 82.6

Same assay, conditions: Mus musculus, 288 h; NSCLC PDX OD33966, oral, 100 mpk qd, treatment day 12; read-out: % TGI

Row | SMILES | inhibition in vivo at 100 mg/kg [%]
14 | Cc1nc(N(C)Cc2cnn(Cc3ccc(C(F)(F)F)nc3)c2)nc2c1NC(=O)[C@H](C)N2C [Compound 403, (7S)-4,7,8-trimethyl-2-(methyl((1-((6-(trifluoromethyl)pyridin-3-yl)methyl)-1H-pyrazol-4-yl)methyl)amino)-7,8-dihydropteridin-6(5H)-one] | 103
15 | CC(=O)N(Cc1cnn(Cc2ccc(C(F)(F)F)nc2)c1)c1nc(C)c2c(n1)N(C)[C@@H](C)C(=O)N2 [Compound 405, (7S)-N-((1-((6-(trifluoromethyl)pyridin-3-yl)methyl)-1H-pyrazol-4-yl)methyl)-N-(4,7,8-trimethyl-6-oxo-5,6,7,8-tetrahydropteridin-2-yl)acetamide] | 91

Same assay, conditions: Mus musculus, 336 h; NSCLC PDX OD33966, oral, 100 mpk qd, treatment day 14; read-out: % TGI

Row | SMILES | inhibition in vivo at 100 mg/kg [%]
16 | COc1c(F)cc(Cn2cc(CNc3nc(C)c4c(n3)N(C)[C@@H](C)C(=O)N4)cn2)cc1F [Compound 46, (7S)-2-(((1-(3,5-difluoro-4-methoxybenzyl)-1H-pyrazol-4-yl)methyl)amino)-4,7,8-trimethyl-7,8-dihydropteridin-6(5H)-one] | 93.3
17 | Cc1nc(NCc2cnn(Cc3ccc(F)nc3)c2)nc2c1NC(=O)[C@H](C)N2C [Compound 77] | 98.5
18 | COc1cc(F)ccc1Cn1cc(CNc2nc(C)c3c(n2)N(C)[C@@H](C)C(=O)N3)cn1 [Compound 83, (7S)-2-(((1-(4-fluoro-2-methoxybenzyl)-1H-pyrazol-4-yl)methyl)amino)-4,7,8-trimethyl-7,8-dihydropteridin-6(5H)-one] | 97.2
19 | Cc1cc(F)ncc1Cn1cc(CNc2nc(C)c3c(n2)N(C)[C@@H](C)C(=O)N3)cn1 [Compound 94, (7S)-2-(((1-((6-fluoro-4-methylpyridin-3-yl)methyl)-1H-pyrazol-4-yl)methyl)amino)-4,7,8-trimethyl-7,8-dihydropteridin-6(5H)-one] | 94.5
20 | Cc1nc(N[C@@H]2CC[C@@H](Oc3cc(F)c(F)c(F)c3)C2)nc2c1N(C)C(=O)[C@H](C)N2C [Compound 272, (S)-4,5,7,8-tetramethyl-2-(((1R,3R)-3-(3,4,5-trifluorophenoxy)cyclopentyl)amino)-7,8-dihydropteridin-6(5H)-one] | 77.9

Same assay, conditions: Mus musculus, 456 h; NSCLC PDX OD33966, oral, 200 mpk bid, treatment day 19; read-out: % TGI

Row | SMILES | inhibition in vivo at 200 mg/kg [%]
21 | Cc1nc(NCc2cnn(Cc3ccc(F)cc3)c2)nc2c1N(C)C(=O)[C@H](C)N2C [Compound 1, (7S)-2-(((1-(4-fluorobenzyl)-1H-pyrazol-4-yl)methyl)amino)-4,5,7,8-tetramethyl-7,8-dihydropteridin-6(5H)-one] | 94.5
